Test results taken from ChEMBL document CHEMBL5150065, “Design, synthesis, and bioevaluation of imidazo [1,2-a] pyrazine derivatives as tubulin polymerization inhibitors with potent anticancer activities” (Bioorg Med Chem, 2022).
Calls of active or inactive are those of the source. No cut-off for these calls is given here.

What was measured:
[1] = system: HepG2; assay: Antiproliferative activity against human HepG2 cells assessed as inhibition of cell growth incubated for 48 hrs by MTT assay; assay type: functional, cell-based; conditions: HepG2, 48 h
[2] = system: HCT-116; assay: Antiproliferative activity against human HCT-116 cells assessed as inhibition of cell growth incubated for 48 hrs by MTT assay; assay type: functional, cell-based; conditions: HCT-116, 48 h
[3] = system: A549; assay: Antiproliferative activity against human A549 cells assessed as inhibition of cell growth incubated for 48 hrs by MTT assay; assay type: functional, cell-based; conditions: A549, 48 h
[4] = system: MDA-MB-231; assay: Antiproliferative activity against human MDA-MB-231 cells assessed as inhibition of cell growth incubated for 48 hrs by MTT assay; assay type: functional, cell-based; conditions: MDA-MB-231, 48 h
[5] = system: HCT-116; assay: Induction of cell cycle arrest in human HCT-116 cells assessed as G1 phase cells at 20 nM measured after 48 hrs by propidium iodide/RNase staining based flow cytometry analysis (reference value: 61.51 %); assay type: functional
[6] = system: HCT-116; assay: Induction of cell cycle arrest in human HCT-116 cells assessed as S phase cells at 20 nM measured after 48 hrs by propidium iodide/RNase staining based flow cytometry analysis (reference value: […] %); assay type: functional
[7] = system: HCT-116; assay: Induction of cell cycle arrest in human HCT-116 cells assessed as increase in G2/M phase cells at 20 nM measured after 48 hrs by propidium iodide/RNase staining based flow cytometry analysis (reference value: […] %); assay type: functional
[8] = target: Tubulin (Sus scrofa) (UniProt P02554+P02550); assay: (§1) Inhibition of pig brain tubulin polymerization in the presence of GTP by spectrophotometric analysis; conditions: DDE = dose-dependent effect
[9] = target: Tubulin (Sus scrofa, UniProt P02554+P02550); assay: as §1
[10] = system: HCT-116; assay: Induction of apoptosis in human HCT-116 cells assessed as total apoptotic cells at 20 nM incubated for 48 hrs by Annexin-V FITC/PI staining based flow cytometry analysis (reference value: 5.76 %); assay type: functional
[11] = system: HCT-116; assay: Induction of apoptosis in human HCT-116 cells assessed as total apoptotic cells at 40 nM incubated for 48 hrs by Annexin-V FITC/PI staining based flow cytometry analysis (reference value: 5.76 %); assay type: functional
[12] = system: HCT-116; assay: Induction of apoptosis in human HCT-116 cells assessed as total apoptotic cells at 80 nM incubated for 48 hrs by Annexin-V FITC/PI staining based flow cytometry analysis (reference value: 5.76 %); assay type: functional
[13] = system: HCT-116; assay: Induction of apoptosis in human HCT-116 cells assessed as total apoptotic cells at 120 nM incubated for 48 hrs by Annexin-V FITC/PI staining based flow cytometry analysis (reference value: 5.76 %); assay type: functional
[14] = system: HCT-116; assay: Induction of cell cycle arrest in human HCT-116 cells assessed as G1 phase cells at 40 nM measured after 48 hrs by propidium iodide/RNase staining based flow cytometry analysis (reference value: 61.51 %); assay type: functional
[15] = system: HCT-116; assay: Induction of cell cycle arrest in human HCT-116 cells assessed as S phase cells at 40 nM measured after 48 hrs by propidium iodide/RNase staining based flow cytometry analysis (reference value: […] %); assay type: functional
[16] = system: HCT-116; assay: Induction of cell cycle arrest in human HCT-116 cells assessed as increase in G2/M phase cells at 40 nM measured after 48 hrs by propidium iodide/RNase staining based flow cytometry analysis (reference value: […] %); assay type: functional
[17] = system: HCT-116; assay: Induction of cell cycle arrest in human HCT-116 cells assessed as G1 phase cells at 80 nM measured after 48 hrs by propidium iodide/RNase staining based flow cytometry analysis (reference value: 61.51 %); assay type: functional
[18] = system: HCT-116; assay: Induction of cell cycle arrest in human HCT-116 cells assessed as S phase cells at 80 nM measured after 48 hrs by propidium iodide/RNase staining based flow cytometry analysis (reference value: […] %); assay type: functional
[19] = system: HCT-116; assay: Induction of cell cycle arrest in human HCT-116 cells assessed as increase in G2/M phase cells at 80 nM measured after 48 hrs by propidium iodide/RNase staining based flow cytometry analysis (reference value: […] %); assay type: functional
[20] = system: HCT-116; assay: Induction of cell cycle arrest in human HCT-116 cells assessed as G1 phase cells at 120 nM measured after 48 hrs by propidium iodide/RNase staining based flow cytometry analysis (reference value: 61.51 %); assay type: functional
[21] = system: HCT-116; assay: Induction of cell cycle arrest in human HCT-116 cells assessed as S phase cells at 120 nM measured after 48 hrs by propidium iodide/RNase staining based flow cytometry analysis (reference value: […] %); assay type: functional
[22] = system: HCT-116; assay: Induction of cell cycle arrest in human HCT-116 cells assessed as increase in G2/M phase cells at 120 nM measured after 48 hrs by propidium iodide/RNase staining based flow cytometry analysis (reference value: […] %); assay type: functional
[23] = system: HCT-116; assay: Inhibition of cell migration in human HCT-116 cells assessed as suppression of wound closure at 10 nM incubated for 48 hrs by wound healing assay relative to control; assay type: functional
[24] = system: HCT-116; assay: Inhibition of cell migration in human HCT-116 cells assessed as suppression of wound closure at 20 nM incubated for 48 hrs by wound healing assay relative to control; assay type: functional
[25] = system: HCT-116; assay: Inhibition of cell migration in human HCT-116 cells assessed as suppression of wound closure at 40 nM incubated for 48 hrs by wound healing assay relative to control; assay type: functional
[26] = system: HCT-116; assay: Inhibition of cell migration in human HCT-116 cells assessed as suppression of wound closure at 80 nM incubated for 48 hrs by wound healing assay relative to control; assay type: functional
[27] = target: T1, Tubulin (Homo sapiens) (UniProt P68371+Q9H4B7+P0DPH7+P68366+Q13509+Q71U36+P04350+Q3ZCM7+P07437+P68363+Q9BQE3+Q6PEY2+Q13885+Q9BVA1+Q9BUF5); assay: Induction of microtubule disruption in human HCT-116 cells assessed as short microtubules at 20 to 60 nM incubated for 48 hrs by DAPI staining based confocal microscopic immunofluorescence analysis; assay type: cell-based; conditions: dose 20-60 nM
[28] = target: T1, Tubulin (Homo sapiens); assay: Induction of microtubule disruption in human HCT-116 cells assessed as disintegrated microtubules at 20 to 60 nM incubated for 48 hrs by DAPI staining based confocal microscopic immunofluorescence analysis; assay type: cell-based; conditions: dose 20-60 nM

Tubulin (Sus scrofa), sequence (P02550 whole entry, looked up): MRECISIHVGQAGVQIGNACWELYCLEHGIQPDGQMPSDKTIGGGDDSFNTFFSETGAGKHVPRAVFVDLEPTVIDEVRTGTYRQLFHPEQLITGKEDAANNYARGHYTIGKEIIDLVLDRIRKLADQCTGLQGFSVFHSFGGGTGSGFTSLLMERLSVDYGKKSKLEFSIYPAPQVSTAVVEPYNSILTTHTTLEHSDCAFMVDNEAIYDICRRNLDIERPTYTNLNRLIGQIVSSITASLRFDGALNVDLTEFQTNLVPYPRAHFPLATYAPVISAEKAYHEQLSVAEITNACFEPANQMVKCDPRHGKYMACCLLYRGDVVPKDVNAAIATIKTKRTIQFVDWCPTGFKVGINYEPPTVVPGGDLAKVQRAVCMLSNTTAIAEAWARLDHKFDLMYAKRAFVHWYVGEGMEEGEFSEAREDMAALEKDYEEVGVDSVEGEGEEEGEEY
Tubulin (Sus scrofa), sequence (P02554 whole entry, looked up): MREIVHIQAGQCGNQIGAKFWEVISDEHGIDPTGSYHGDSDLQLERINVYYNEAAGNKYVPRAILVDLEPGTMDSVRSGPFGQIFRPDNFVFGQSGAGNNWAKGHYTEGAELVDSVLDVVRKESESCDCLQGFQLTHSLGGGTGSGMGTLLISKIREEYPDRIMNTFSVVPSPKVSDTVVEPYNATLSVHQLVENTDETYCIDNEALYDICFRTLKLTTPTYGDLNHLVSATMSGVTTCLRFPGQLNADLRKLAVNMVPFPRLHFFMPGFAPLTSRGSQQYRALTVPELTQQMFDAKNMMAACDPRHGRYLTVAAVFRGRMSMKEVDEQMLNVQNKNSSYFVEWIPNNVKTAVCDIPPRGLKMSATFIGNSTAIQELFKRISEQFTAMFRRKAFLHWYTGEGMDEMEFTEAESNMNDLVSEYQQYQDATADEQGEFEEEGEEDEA

COc1cc(C(=O)c2cn3cc(Br)nc(Cl)c3n2)cc(OC)c1OC
IC50 [1]: 5120 nM | IC50 [2]: 1620 nM | IC50 [3]: 8260 nM | IC50 [4]: 6760 nM

COc1cc(-c2nccn3cc(-c4ccccc4)nc23)cc(OC)c1OC
IC50 [1]: 267 nM | IC50 [2]: 266 nM | IC50 [3]: 378 nM | IC50 [4]: 364 nM

COc1cc2c(c(OC)c1OC)-c1ccc(OC)c(=O)cc1[C@@H](NC(C)=O)CC2 [COLCHICINE]
IC50 [1]: 54 nM | IC50 [2]: 11 nM | IC50 [3]: 184 nM | IC50 [4]: 176 nM | Activity [5]: 24.07% | Activity [6]: 15.12% | Activity [7]: 60.81%

COc1cc(C(=O)c2cn3cc(Cl)cc(C(F)(F)F)c3n2)cc(OC)c1OC
IC50 [1]: > 10000 nM | IC50 [2]: > 10000 nM | IC50 [3]: > 10000 nM | IC50 [4]: > 10000 nM

COc1cc(-c2nccn3cc(-c4ccc([N+](=O)[O-])cc4)nc23)cc(OC)c1OC
IC50 [1]: > 10000 nM | IC50 [2]: > 10000 nM | IC50 [3]: > 10000 nM | IC50 [4]: > 10000 nM

COc1ccc(-c2cn3ccnc(-c4cc(OC)c(OC)c(OC)c4)c3n2)cc1O
IC50 [1]: 87 nM | IC50 [2]: 74 nM | IC50 [3]: > 10000 nM | IC50 [4]: > 10000 nM

COc1cc(C(=O)c2cn3ccc(C)c([N+](=O)[O-])c3n2)cc(OC)c1OC
IC50 [1]: > 10000 nM | IC50 [2]: > 10000 nM | IC50 [3]: > 10000 nM | IC50 [4]: > 10000 nM

COc1cc(C(=O)c2cn3ccnc(-c4ccc(C)cc4)c3n2)cc(OC)c1OC
IC50 [1]: > 10000 nM | IC50 [2]: > 10000 nM | IC50 [3]: 7900 nM | IC50 [4]: > 10000 nM

COc1cc(-c2nccn3cc(-c4ccc(C(F)(F)F)cc4)nc23)cc(OC)c1OC
IC50 [1]: 2630 nM | IC50 [2]: > 10000 nM | IC50 [3]: > 10000 nM | IC50 [4]: > 10000 nM

COc1ccc(-c2cn3ccnc(-c4cc(OC)c(OC)c(OC)c4)c3n2)cc1[N+](=O)[O-]
IC50 [1]: > 10000 nM | IC50 [2]: > 10000 nM | IC50 [3]: > 10000 nM | IC50 [4]: > 10000 nM

COc1cc(-c2nccn3cc(-c4ccc(F)cc4)nc23)cc(OC)c1OC
IC50 [1]: 217 nM | IC50 [2]: 263 nM | IC50 [3]: 137 nM | IC50 [4]: 401 nM

COc1cc(-c2nccn3cc(-c4ccc(N)cc4)nc23)cc(OC)c1OC
IC50 [1]: 252 nM | IC50 [2]: 158 nM | IC50 [3]: 287 nM | IC50 [4]: 294 nM

COc1cc(-c2nccn3cc(-c4ccc5[nH]ccc5c4)nc23)cc(OC)c1OC
IC50 [1]: 146 nM | IC50 [2]: 23 nM | IC50 [3]: 154 nM | IC50 [4]: 74 nM | inhibition [8]: Dde | IC50 [9]: 45700 nM | Activity [10]: 6.25% | Activity [11]: 29.53% | Activity [12]: 37.2% | Activity [13]: 50.07% | Activity [5]: 61.42% | Activity [6]: 17.47% | Activity [7]: 21.11% | Activity [14]: 60.42% | Activity [15]: 21.98% | Activity [16]: 17.6% | Activity [17]: 11.9% | Activity [18]: 8.87% | Activity [19]: 79.23% | Activity [20]: 8.17% | Activity [21]: 12.16% | Activity [22]: 79.67% | inhibition at 0.01 µM [23]: 30.8% | inhibition at 0.02 µM [24]: 55% | inhibition at 0.04 µM [25]: 56.8% | inhibition at 0.08 µM [26]: 60.6% | Activity [27]: Active | Activity [28]: Active

COc1cc(C(=O)c2cn3ccnc(-c4ccc(F)cc4)c3n2)cc(OC)c1OC
IC50 [1]: > 10000 nM | IC50 [2]: > 10000 nM | IC50 [3]: > 10000 nM | IC50 [4]: > 10000 nM

COc1ccc(-c2cn3ccnc(-c4cc(OC)c(OC)c(OC)c4)c3n2)cc1
IC50 [1]: 205 nM | IC50 [2]: 191 nM | IC50 [3]: 457 nM | IC50 [4]: 105 nM

COc1cc(-c2nccn3cc(-c4ccc(O)cc4)nc23)cc(OC)c1OC
IC50 [1]: 823 nM | IC50 [2]: 901 nM | IC50 [3]: > 10000 nM | IC50 [4]: > 10000 nM

COc1cc(C(=O)c2cn3ccnc(-c4ccc5[nH]ccc5c4)c3n2)cc(OC)c1OC
IC50 [1]: > 10000 nM | IC50 [2]: 689 nM | IC50 [3]: > 10000 nM | IC50 [4]: > 10000 nM

COc1ccc(-c2cn3ccnc(-c4cc(OC)c(OC)c(OC)c4)c3n2)cc1N
IC50 [1]: 123 nM | IC50 [2]: 122 nM | IC50 [3]: 309 nM | IC50 [4]: 111 nM

COc1cc(-c2nccn3cc(-c4ccc(Cl)cc4)nc23)cc(OC)c1OC
IC50 [1]: 475 nM | IC50 [2]: 351 nM | IC50 [3]: 7290 nM | IC50 [4]: 2090 nM

COc1cc(C(=O)c2cn3ccc(F)cc3n2)cc(OC)c1OC
IC50 [1]: > 10000 nM | IC50 [2]: > 10000 nM | IC50 [3]: > 10000 nM | IC50 [4]: > 10000 nM

COc1cc(C(=O)c2cn3ccc(C(F)(F)F)cc3n2)cc(OC)c1OC
IC50 [1]: > 10000 nM | IC50 [2]: > 10000 nM | IC50 [3]: > 10000 nM | IC50 [4]: > 10000 nM

COc1ccn2cc(C(=O)c3cc(OC)c(OC)c(OC)c3)nc2c1
IC50 [1]: 4140 nM | IC50 [2]: 6520 nM | IC50 [3]: > 10000 nM | IC50 [4]: > 10000 nM

COc1cc(C(=O)c2cn3c(C(C)C)cccc3n2)cc(OC)c1OC
IC50 [1]: > 10000 nM | IC50 [2]: > 10000 nM | IC50 [3]: > 10000 nM | IC50 [4]: > 10000 nM

COc1cc(C(=O)c2cn3ccnc(-c4ccccc4)c3n2)cc(OC)c1OC
IC50 [1]: > 10000 nM | IC50 [2]: 1940 nM | IC50 [3]: 3940 nM | IC50 [4]: > 10000 nM

COc1cc(C(=O)c2cn3ccc(C)cc3n2)cc(OC)c1OC
IC50 [1]: 6700 nM | IC50 [2]: 3060 nM | IC50 [3]: > 10000 nM | IC50 [4]: 9280 nM

COc1cc(-c2nccn3cc(-c4ccc(C)cc4)nc23)cc(OC)c1OC
IC50 [1]: 160 nM | IC50 [2]: 74 nM | IC50 [3]: 135 nM | IC50 [4]: 53 nM
